According to US20060183119A1, “Method for determining predisposition to a physiological reaction in a patient” (UNIVERSITE LAVAL, priority 2002, published 2006):
Numbering of substitutions follows the chain as printed.

Columns and labels:
Format in all cases: in vitro ADME
Design in all cases: key to Function (SN-38G formation versus *1 allele): High: no significant difference in activity compared to *1 allele.; Low: significantly lower SN-38G formation versus *1 allele
UGT1A7*3 = biological target: T1, UGT1A7*3 (Homo sapiens, UniProt Q9HAW7, N129K/R131K/W208R); assay: SN-38 glucuronidation by microsomes of HEK293 cells expressing UGT1A7*3
T1 construct: expressed in transfected cells
T1 sequence (Q9HAW7 26-530 N129K/R131K/W208R): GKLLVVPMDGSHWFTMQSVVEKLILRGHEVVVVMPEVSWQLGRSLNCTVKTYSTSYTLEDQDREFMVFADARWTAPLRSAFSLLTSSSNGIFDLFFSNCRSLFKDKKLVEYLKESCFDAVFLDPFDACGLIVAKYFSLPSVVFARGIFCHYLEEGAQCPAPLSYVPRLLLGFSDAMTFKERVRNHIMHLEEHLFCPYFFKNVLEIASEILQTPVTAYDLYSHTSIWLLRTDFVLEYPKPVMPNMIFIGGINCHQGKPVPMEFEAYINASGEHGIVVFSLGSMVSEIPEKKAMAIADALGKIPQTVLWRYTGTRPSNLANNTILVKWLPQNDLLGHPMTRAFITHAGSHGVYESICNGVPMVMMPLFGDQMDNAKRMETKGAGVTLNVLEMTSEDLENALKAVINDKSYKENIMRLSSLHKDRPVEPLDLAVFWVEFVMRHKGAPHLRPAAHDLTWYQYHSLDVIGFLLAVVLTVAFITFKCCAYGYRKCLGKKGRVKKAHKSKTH
Description: (§1) Western blot analyses of UGT1A7 and UGT1A9 variants expressed in HEK293 cells were performed on microsomal proteins (10 μg) separated on a 10% SDS-polyacrylamide gel. After transferring the proteins, the membranes were probed with an anti-UGT1A RC-71 polyclonal antibody and with an anti-calnexin antibody. The relative levels of UGT1A9 (a) and UGT1A7 proteins (b) were determined by semi-quantitative densitometric analysis of the Enhanced chemiluminescence (ECL) image. The in vitro SN-38 activity was assessed using microsomal fractions prepared from HEK293 cells expressing the *1 and variant UGT1A9 (c) and UGT1A7 (d) alleles and incubated with 5 μM of SN-38 as described in Materials and Methods.
(§2) For the determination of Vmax and Km.

UGT1A7*8 = biological target: T2, UGT1A7*8 (Homo sapiens, UniProt Q9HAW7, E139D/N129K/R131K/W208R); assay: SN-38 glucuronidation by microsomes of HEK293 cells expressing UGT1A7*8
T2 construct: expressed in transfected cells
T2 sequence (Q9HAW7 26-530 N129K/R131K/E139D/W208R): T1 sequence (Q9HAW7 26-530 N129K/R131K/W208R) with E114D
Description: as §1, §2

UGT1A7*2 = biological target: T3, UGT1A7*2 (Homo sapiens, UniProt Q9HAW7, N129K/R131K); assay: SN-38 glucuronidation by microsomes of HEK293 cells expressing UGT1A7*2
T3 construct: expressed in transfected cells
T3 sequence (Q9HAW7 26-530 N129K/R131K): T1 sequence (Q9HAW7 26-530 N129K/R131K/W208R) with R183W
Description: as §1, §2

CCc1c2c(nc3ccc(O)cc13)-c1cc3c(c(=O)n1C2)COC(=O)[C@]3(O)CC [SN-38, 7-ethyl-10-hydroxycamptothecin]
SN-38 glucuronidating activity of the allele (in words) (UGT1A7*3): low
Function (SN-38G formation versus *1 allele) (UGT1A7*3; in vitro experiments): Low
SN-38 glucuronidating activity of the allele (in words) (UGT1A7*8): low
Function (SN-38G formation versus *1 allele) (UGT1A7*8; in vitro experiments): Low
lower rates of SN-38G formation compared to UGT1A7*1 (UGT1A7*8; range given for *5, *7 and *8 together): 38-76%
SN-38 glucuronidating activity of the allele (in words) (UGT1A7*2): highest
Function (SN-38G formation versus *1 allele) (UGT1A7*2; in vitro experiments): High
